Results published in patent US12428415B2, “Matriptase 2 inhibitors and uses thereof” (Disc Medicine, Inc., priority 2018, dated 2025).

Biological target: T1, Human Recombinant Matriptase 2 (Homo sapiens, UniProt Q8IU80)
T1 construct: purchased Enzo Life Sciences (an in-house preparation was also used) ALX-201-752-1
T1 sequence (Q8IU80 1-811): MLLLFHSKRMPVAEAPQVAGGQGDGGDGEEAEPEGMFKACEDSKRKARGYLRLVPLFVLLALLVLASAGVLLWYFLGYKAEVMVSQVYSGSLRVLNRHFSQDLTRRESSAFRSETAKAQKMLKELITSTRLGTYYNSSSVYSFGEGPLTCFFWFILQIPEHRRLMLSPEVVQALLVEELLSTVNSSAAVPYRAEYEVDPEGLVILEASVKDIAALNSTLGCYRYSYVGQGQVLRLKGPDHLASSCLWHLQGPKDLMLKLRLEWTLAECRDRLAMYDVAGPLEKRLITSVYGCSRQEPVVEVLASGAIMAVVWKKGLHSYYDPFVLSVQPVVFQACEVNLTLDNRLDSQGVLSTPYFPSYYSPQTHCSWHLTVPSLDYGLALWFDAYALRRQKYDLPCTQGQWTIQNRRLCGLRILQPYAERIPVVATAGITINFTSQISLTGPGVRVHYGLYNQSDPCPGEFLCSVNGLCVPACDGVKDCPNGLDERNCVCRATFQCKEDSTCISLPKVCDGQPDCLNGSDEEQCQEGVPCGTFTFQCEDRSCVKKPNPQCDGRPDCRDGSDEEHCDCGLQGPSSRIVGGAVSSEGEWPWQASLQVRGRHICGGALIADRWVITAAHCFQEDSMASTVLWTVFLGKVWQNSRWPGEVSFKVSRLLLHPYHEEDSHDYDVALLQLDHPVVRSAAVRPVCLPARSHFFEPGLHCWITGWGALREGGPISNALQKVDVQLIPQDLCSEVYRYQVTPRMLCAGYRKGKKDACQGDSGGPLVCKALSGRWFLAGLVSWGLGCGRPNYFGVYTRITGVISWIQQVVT
Test: Matriptase 2 fluorescence based inhibition assay, Method A (100 mM TRIS pH 9, 1 mg/mL BSA)
Assay type: biochemical
Settings: 1 uM; Assay Used A; read-out: Mar-2 % inhibition at 1 uM
Description: Test compounds were evaluated for their potential to inhibit Human Recombinant Matriptase 2 (in-house and commercial protein from Enzo Life Sciences—cat log -ALX-201-752-1) using fluorescence based assay. The concentration of Recombinant Matriptase 2 and the substrate used in the assay was: 7 nM (commercial) and 15 nM (Inhouse Matriptase 2) and 100 μM (Boc-Gln-Ala-Arg-7-amido-4-methyl coumarin hydrobromide—Cat log: B4153-Sigma) respectively. The assay buffer used was 100 mM TRIS pH 9, 1 mg/mL BSA. The assay was performed using 384 well black flat bottom plate from grenier (Cat log: 781076) at 25° C. The enzyme and compound was preincubated for 30 mins, plate was read 60 mins after substrate addition at wavelength Ex: 360/Em: 480 nm. The final assay volume was 20 μl. Stock solution of compounds were initially prepared in DMSO and appropriate dilutions were made for screening and IC50 determination (final DMSO conc in the assay was 1%). All the measurements were carried out using the Spectramax M5, Molecular devices. The compounds were screened at 1 and 10 μM concentration and IC50 was determined for the interested compounds.
To determine IC50 values, dose response curves were generated by plotting percentage inhibition as a function of inhibitor concentration and the data was fitted to sigmoidal non-linear regression equation (variable slope) using Graph Pad prism software V7.

| SMILES | inhibition at 1 µM |
| --- | --- |
| N=C(N)c1ccc2cc(C(=O)Nc3ccc(N)nc3)n(Cc3ccc(C(F)(F)F)cc3)c2c1 [Compound I-1, N-(6-aminopyridin-3-yl)-6-carbamimidoyl-1-(4-(trifluoromethyl)benzyl)-1H-indole-2-carboxamide] | 0 to 25% |
| N=C(N)c1ccc2cc(C(=O)N[C@H]3CC[C@H](N)CC3)n(Cc3ccc(C(F)(F)F)cc3)c2c1 [Compound I-4] | 25 to 50% |
| N=C(N)c1ccc2cc(C(=O)NC3CCNCC3)n(Cc3ccc(C(F)(F)F)cc3)c2c1 [Compound I-5] | 25 to 50% |
| N=C(N)c1ccc2cc(C(=O)NC3CCN(CCCN)CC3)n(Cc3ccc(C(F)(F)F)cc3)c2c1 [Compound I-6, N-(1-(3-Aminopropyl)piperidin-4-yl)-6-carbamimidoyl-1-(4-(trifluoromethyl)benzyl)-1H indole-2-carboxamide] | 25 to 50% |
| N=C(N)c1ccc2cc(C(=O)NC3CCN(C(=O)CCN)CC3)n(Cc3ccc(C(F)(F)F)cc3)c2c1 [Compound I-8, N-(1-(3-aminopropanoyl)piperidin-4-yl)-6-carbamimidoyl-1-(4-(trifluoromethyl)benzyl)-1H-indole-2-carboxamide] | 25 to 50% |
| N=C(N)c1ccc2cc(C(=O)N[C@H]3CC[C@H](NC(=O)c4ccccn4)CC3)n(Cc3ccc(C(F)(F)F)cc3)c2c1 [Compound I-9, 6-carbamimidoyl-N-((1r,4r)-4-(picolinamido)cyclohexyl)-1-(4-(trifluoromethyl)benzyl)-1H-indole-2-carboxamide] | 25 to 50% |
| N=C(N)c1ccc2cc(C(=O)NCC3CCCCC3)n(Cc3ccc(C(F)(F)F)cc3)c2c1 [Compound I-10] | 25 to 50% |
| N=C(N)c1ccc2cc(C(=O)NC3CCC(N)CC3)n(Cc3ccc(OC(F)(F)F)cc3)c2c1 (centres unmarked) [Compound I-11] | 25 to 50% |
| N=C(N)c1ccc2cc(C(=O)NCC3CCCCC3)n(Cc3ccc(OC(F)(F)F)cc3)c2c1 [Compound I-12] | 0 to 25% |
| CC(C)c1ccc(Cn2c(C(=O)N[C@H]3CC=CCC3)cc3ccc(C(=N)N)cc32)cc1 [Compound I-14] | 0 to 25% |
| CC(C)c1ccc(Cn2c(C(=O)NC3CCC(F)(F)CC3)cc3ccc(C(=N)N)cc32)cc1 [Compound I-15] | 0 to 25% |
| CC(C)c1ccc(Cn2c(C(=O)NCC3CCCCC3)cc3ccc(C(=N)N)cc32)cc1 [Compound I-16] | 0 to 25% |
| CCOC(=O)c1ccc(Cn2c(C(=O)N[C@H]3CC[C@H](N)CC3)cc3ccc(C(=N)N)cc32)cc1 [Compound I-22, Ethyl 4-((2-(((1r,4r)-4-aminocyclohexyl)carbamoyl)-6-carbamimidoyl-1H-indol-1-yl)methyl)-benzoate] | 25 to 50% |
| N=C(N)c1ccc2cc(C(=O)NCc3cccc(CN)c3)n(CCc3ccccc3)c2c1 [Compound I-24] | 0 to 25% |
| N=C(N)c1ccc2cc(C(=O)Nc3ccc(C(N)=O)cc3)n(CCc3ccccc3)c2c1 [Compound I-25] | 0 to 25% |
| N=C(N)c1ccc2cc(C(=O)Nc3cccc(C(N)=O)c3)n(CCc3ccccc3)c2c1 [Compound I-26] | 0 to 25% |
| N=C(N)c1ccc2cc(C(=O)NC3CCN(CCN)CC3)n(CCc3ccccc3)c2c1 [Compound I-28, N-(1-(2-Aminoethyl)piperidin-4-yl)-6-carbamimidoyl-1-phenethyl-1H-indole-2-carboxamide] | 25 to 50% |
| COc1ccc(CCn2c(C(=O)N[C@H]3CC[C@H](N)CC3)cc3ccc(C(=N)N)cc32)cc1 [Compound I-32] | 25 to 50% |
| N=C(N)c1ccc2c(N)c(C(=O)N[C@H]3CC[C@H](N)CC3)n(CCc3ccc(C(F)(F)F)cc3)c2c1 [Compound I-33, 3-Amino-N-((1r,4r)-4-aminocyclohexyl)-6-carbamimidoyl-1-(4-(trifluoromethyl)-phenethyl)-1H-indole-2-carboxamide] | 0 to 25% |
| CCc1ccc(-c2cccc(CCn3c(C(=O)N[C@H]4CC[C@H](N)CC4)cc4ccc(C(=N)N)cc43)c2)cc1 [Compound I-35] | 25 to 50% |
| N=C(N)c1ccc2cc(C(=O)Nc3cccc(C(F)(F)F)c3)n(CCS(=O)(=O)c3ccccc3)c2c1 [Compound I-40, 6-Carbamimidoyl-1-(2-(phenylsulfonyl)ethyl)-N-(3-(trifluoromethyl)phenyl)-1H-indole-2-carboxamide] | 0 to 25% |
| N=C(N)c1ccc2cc(C(=O)Nc3cccc(F)c3)n(CCS(=O)(=O)c3ccccc3)c2c1 [Compound I-41] | 0 to 25% |
| N=C(N)c1ccc2cc(C(=O)Nc3ccc(F)cc3)n(CCS(=O)(=O)c3ccccc3)c2c1 [Compound I-42] | 0 to 25% |
| N=C(N)c1ccc2cc(C(=O)Nc3ccc(C(F)(F)F)cc3)n(CCS(=O)(=O)c3ccccc3)c2c1 [Compound I-43] | 0 to 25% |
| N=C(N)c1ccc2cc(C(=O)Nc3ccc(N4CCCC4)cc3)n(CCS(=O)(=O)c3ccccc3)c2c1 [Compound I-44] | 0 to 25% |
| N=C(N)c1ccc2cc(C(=O)NC[C@H]3CCCNC3)n(CCS(=O)(=O)c3ccccc3)c2c1 [Compound I-51] | 25 to 50% |
| N=C(N)c1ccc2cc(C(=O)NCC3CCC(F)(F)CC3)n(CCS(=O)(=O)c3ccccc3)c2c1 [Compound I-54] | 0 to 25% |

Next, values leading:

| inhibition at 1 µM | SMILES |
| --- | --- |
| 50 to 75% | CSc1ccc(Cn2c(C(=O)NC3CCC(N)CC3)cc3ccc(C(=N)N)cc32)cc1 (centres unmarked) [Compound I-13] |
| 50 to 75% | CC(C)(C)c1ccc(Cn2c(C(=O)NC3CCC(N)CC3)cc3ccc(C(=N)N)cc32)cc1 (centres unmarked) [Compound I-17] |
| 25 to 50% | N=C(N)c1ccc2cc(C(=O)N[C@H]3CC[C@H](N)CC3)n(Cc3cccnc3)c2c1 [Compound I-18] |
| 25 to 50% | N=C(N)c1ccc2cc(C(=O)N[C@H]3CC[C@H](N)CC3)n(Cc3ccncc3)c2c1 [Compound I-19] |
| 25 to 50% | N=C(N)c1ccc2cc(C(=O)N[C@H]3CC[C@H](N)CC3)n(Cc3ccc(C(=O)O)cc3)c2c1 [Compound I-20, 4-((2-(((1r,4r)-4-aminocyclohexyl)carbamoyl)-6-carbamimidoyl-1H-indol-1-yl)methyl)benzoic Acid] |
| 50 to 75% | COC(=O)c1ccc(Cn2c(C(=O)N[C@H]3CC[C@H](N)CC3)cc3ccc(C(=N)N)cc32)cc1 [Compound I-21, Methyl 4-((2-(((1r,4r)-4-aminocyclohexyl)carbamoyl)-6-carbamimidoyl-1H-indol-1-yl)methyl)-benzoate] |
| 50 to 75% | N=C(N)c1ccc2cc(C(=O)N[C@H]3CC[C@H](N)CC3)n(CCc3ccccc3)c2c1 [Compound I-27] |
| 25 to 50% | N=C(N)c1ccc2cc(C(=O)N[C@H]3CC[C@H](N)CC3)n(CCc3ccc(F)cc3)c2c1 [Compound I-30] |
| 25 to 50% | N=C(N)c1ccc2cc(C(=O)N[C@H]3CC[C@H](N)CC3)n(CCc3cccc(Br)c3)c2c1 [Compound I-31] |
| 25 to 50% | N=C(N)c1ccc2cc(C(=O)N[C@H]3CC[C@H](N)CC3)n(CCCc3ccccc3)c2c1 [Compound I-34] |
| 25 to 50% | N=C(N)c1ccc2cc(C(=O)N[C@H]3CC[C@H](N)CC3)n(CS(=O)(=O)c3ccccc3)c2c1 [Compound I-39] |
| 0 to 25% | CC1CCC(NC(=O)c2cc3ccc(C(=N)N)cc3n2CCS(=O)(=O)c2ccccc2)CC1 (centres unmarked) [Compound I-46] |
| 0 to 25% | N=C(N)c1ccc2cc(C(=O)N[C@@H]3CC=CCC3)n(CCS(=O)(=O)c3ccccc3)c2c1 [Compound I-47] |
| 25 to 50% | N=C(N)c1ccc2cc(C(=O)NC3CCC(F)(F)CC3)n(CCS(=O)(=O)c3ccccc3)c2c1 [Compound I-48] |
| 0 to 25% | N=C(N)c1ccc2cc(C(=O)NCC3CCCCC3)n(CCS(=O)(=O)c3ccccc3)c2c1 [Compound I-49] |
| 50 to 75% | N=C(N)c1ccc2cc(C(=O)NCC3CCNCC3)n(CCS(=O)(=O)c3ccccc3)c2c1 [Compound I-50] |
| 0 to 25% | N=C(N)c1ccc2cc(C(=O)NCC3CCC(O)CC3)n(CCS(=O)(=O)c3ccccc3)c2c1 (centres unmarked) [Compound I-52] |
